Here are results for 1 compound from US20250108037A1, “COMPOSITION CONTAINING ERGOTHIONEINE FOR SUPPRESSING OR PREVENTING INNER EAR HEARING LOSS” (MITSUBISHI GAS CHEMICAL COMPANY, INC., priority 2021, published 2025).

The test system of the assay is C57BL/6J mouse, age-related hearing loss model. In words: ABR (auditory brainstem response) test in age-related hearing loss model mice after oral administration once a day. The assay is classed as in vivo. The conditions noted are these: given as yeast extract powder.

Turning to `C[N+](C)(C)[C@@H](Cc1c[nH]c(=S)[nH]1)C(=O)[O-]` [ergothioneine, Ergothioneine], where the note is “Example 2, Tables 5 and 6, 24 and 32 kHz”, the “hearing loss suppression effect” value was “confirmed at either frequency, but was particularly remarkable at 24 kHz”. Moreover, the “progression of hearing loss” value (conclusion from the ABR results) is recorded as “delayed”.
